The test system of one assay is FAB1 TDP-43 yeast strain. Kind of assay: Propidium iodide flow cytometry viability assay, control FAB1 TDP-43 yeast strain. In kind it is cell-based. To be noted: 15 μM to 0.11 μM. An excerpt:
(§1) Generation of TDP-43 yeast model expressing human PIKfyve. Human PIKFYVE (“entry clone”) was cloned into pAG416GPDccdB (“destination vector”) according to standard Gateway cloning protocols (Invitrogen, Life Technologies). The resulting pAG416GPD-PIKFYVE plasmids were amplified in E. coli and plasmid identity confirmed by restriction digest and Sanger sequencing. Lithium acetate/polyethylene glycol-based transformation was used to introduce the above PIKFYVE plasmid into a BY4741 yeast strain auxotrophic for the ura3 gene and deleted for two transcription factors that regulate the xenobiotic efflux pumps, a major efflux pump, and FAB1, the yeast ortholog of PIKFYVE (MATa, snq2::KILeu2; pdr3::Klura3; pdr1::NATMX; fab1::G418R, his3; leu2; ura3; met15; LYS2+) (FIG. 2). Transformed yeast were plated on solid agar plates with complete synthetic media lacking uracil (CSM-ura) and containing 2% glucose. Individual colonies harboring the control or PIKFYVE TDP-43 plasmids were recovered. A plasmid containing wild-type TDP-43 under the transcriptional control of the GAL1 promoter and containing the hygromycin-resistance gene as a selectable marker was transformed into the fab/::G418R pAG416GPD-PIKFYVE yeast strain (FIG. 1). Transformed yeast were plated on CSM-ura containing 2% glucose and […] after overnight recovery in media lacking antibiotic. Multiple independent isolates were further evaluated for cytotoxicity and TDP-43 expression levels.
(§2) Viability Assay. A control yeast strain with the wild-type yeast FAB1 gene and TDP-43 (“FAB1 TDP-43”, carries empty pAG416 plasmid), and the “PIKFYVE TDP-43” yeast strain, were assessed for toxicity using a propidium iodide viability assay. Both yeast strains were transferred from solid CSM-ura/2% glucose agar plates into 3 mL of liquid CSM-ura/2% glucose media for 6-8 hours at 30° C. with aeration. Yeast cultures were then diluted to an optical density at 600 nm wavelength (OD600) of 0.005 in 3 mL of CSM-ura/2% raffinose and grown overnight at 30° C. with aeration to an OD600 of 0.3-0.8. Log-phase overnight cultures were diluted to OD600 of 0.005 in CSM-ura containing either 2% raffinose or galactose and 150 μL dispensed into each well of a flat bottom 96-well plates. Compounds formulated in 100% dimethyl sulfoxide (DMSO) were serially diluted in DMSO and 1.5 μL diluted compound transferred to the 96-well plates using a multichannel pipet. Wells containing DMSO alone were also evaluated as controls for compound effects. Tested concentrations ranged from 15 μM to 0.11 μM. Cultures were immediately mixed to ensure compound distribution and covered plates incubated at 30° C. for 24 hours in a stationary, humified incubator.
(§3) Upon the completion of incubation, cultures were assayed for viability using propidium iodide (PI) to stain for dead/dying cells. A working solution of PI was made where, for each plate, 1 μL of 10 mM PI was added to 10 mL of CSM-ura (raffinose or galactose). The final PI solution ([…]) was dispensed into each well of a new round bottom 96-well plate. The overnight 96-well assay plate was then mixed with a multichannel pipet and 50 μL transferred to the PI-containing plate. This plate was then incubated for 30 minutes at 30° C. in the dark. A benchtop flow cytometer (Miltenyi MACSquant) was then used to assess red fluorescence (B2 channel), forward scatter, and side scatter (with following settings: gentle mix, high flow rate, fast measurement, 10,000 events). Intensity histograms were then gated for “PI-positive” or “PI-negative” using the raffinose and galactose cultures treated with DMSO as controls. The DMSO controls for raffinose or galactose-containing cultures were used to determine the window of increased cell death and this difference set to 100. All compounds were similarly gated and then compared to this maximal window to establish the percent reduction in PI-positive cells.

The test system of assay [1] is PIKFYVE TDP-43 yeast strain. As to the kind of experiment: Propidium iodide flow cytometry viability assay, PIKFYVE TDP-43 yeast strain. The assay is classed as cell-based. The settings on record: for PIKfyve TDP-43 (active/inactive): yeast viability, 15 μM to 0.11 μM; for IC50: reduction in PI-positive cells, values plotted in FIG. 7.
Text: as §1, §2, §3
In general terms: A flow cytometer gives signals particle by particle.

Assay [2] addresses full-length human PIKFYVE (Homo sapiens (Human), UniProt Q9Y2I7, L932S/Q1183K/Q995L/S1033A/S696N/T998S). As to the kind of experiment: PIKfyve biochemical assay (ADP-Glo Kinase assay, Carna Biosciences). On the procedure: (§4) PIKfyve Biochemical Assay. The biochemical PIKFyve inhibition assays were run by Carna Biosciences according to proprietary methodology based on the Promega ADP-Glo™ Kinase assay. […] GST-PIKFYVE was purified by using glutathione sepharose chromatography and used in an ADP-Glo™ Kinase assay (Promega). Reactions were set up by adding the test compound solution, substrate solution, ATP solution and kinase solution, each at 4× final concentrations. Reactions were prepared with assay buffer (50 mM MOPS, 1 mM DTT, pH7.2), mixed, and incubated in black 384 well polystyrene plates for 1 hour at room temperature. ADPGlo™ reagent was then added for 40 minutes, followed by kinase detection reagent for an additional 40 minutes. The kinase activity was evaluated by detecting relative light units on a luminescence plate reader. Samples were run in duplicate from 10 μM to 3 nM. […] IC50 values were calculated from concentration vs % inhibition curves by fitting to a four-parameter logistic curve.
as §4, with “The” for “PIKfyve Biochemical Assay. The”, “ADP-Glo™” for “ADPGlo™”, “uM” for “μM”, “curve. […]” for “curve.”
For orientation: ADP-Glo first removes unused ATP, then detects ADP through luciferase.

The target in the next assay is hPIKfyve (Homo sapiens (Human), UniProt Q9Y2I7). Kind of assay: NanoBRET TE Intracellular Kinase Assay, K-8, in HEK293 cells transfected with PIKFYVE-NanoLuc Fusion Vector. The assay is classed as cell-based. To be noted: 2 hours, tracer displacement, read-out: hPIKfyve BRET IC50. As for the experimental part:
NanoBRET™ TE Intracellular Kinase Assay, K-8 (Promega) Cell-Based Assay. Intracellular inhibition of PIKfyve was assayed using Promega's NanoBRET™ TE Intracellular Kinase Assay, K-8 according to manufacturer's instructions. A dilution series of test compounds was added for 2 hours to HEK293 cells transfected for a minimum of 20 hours with PIKFYVE-NanoLuc® Fusion Vector (Promega) containing a full-length PIKfyve according to manufacturer's specifications in a 96-well plate. Kinase activity was detected by addition of a NanoBRET™ tracer reagent, which was a proprietary PIKfyve inhibitor appended to a fluorescent probe (BRET, bioluminescence resonance energy transfer). Test compounds were tested at concentrations of 10, 3, 1, 0.3, 0.1, 0.03, 0.01, 0.003 μM. BRET signals were measured by a GloMax®Discover Multimode Microplate Reader (Promega) using 0.3 sec/well integration time, 450BP donor filter and 600LP acceptor filters. Active test compounds that bound PIKfyve and displaced the tracer reduced BRET signal. IC50 values were then calculated by fitting the data to the normalized BRET ratio.
A general note: Bioluminescence resonance energy transfer reports proximity on the nanometre scale.

[3] abbreviates: values plotted in FIG. 7, read-out: PIKFYVE Biochemistry (IC50).
Setting [4] is: ADP-Glo, GST-PIKFYVE, 10 μM to 3 nM, read-out: hPIKfyve IC50.
[5] abbreviates: ADP-Glo with full-length PIKfyve, read-out: PIKfyve IC50.

Each structure is given as a SMILES string. Read-outs that look alike come from different tables or passages of the source.

Chain of hPIKfyve (Q9Y2I7 whole entry, the tested form may be a part): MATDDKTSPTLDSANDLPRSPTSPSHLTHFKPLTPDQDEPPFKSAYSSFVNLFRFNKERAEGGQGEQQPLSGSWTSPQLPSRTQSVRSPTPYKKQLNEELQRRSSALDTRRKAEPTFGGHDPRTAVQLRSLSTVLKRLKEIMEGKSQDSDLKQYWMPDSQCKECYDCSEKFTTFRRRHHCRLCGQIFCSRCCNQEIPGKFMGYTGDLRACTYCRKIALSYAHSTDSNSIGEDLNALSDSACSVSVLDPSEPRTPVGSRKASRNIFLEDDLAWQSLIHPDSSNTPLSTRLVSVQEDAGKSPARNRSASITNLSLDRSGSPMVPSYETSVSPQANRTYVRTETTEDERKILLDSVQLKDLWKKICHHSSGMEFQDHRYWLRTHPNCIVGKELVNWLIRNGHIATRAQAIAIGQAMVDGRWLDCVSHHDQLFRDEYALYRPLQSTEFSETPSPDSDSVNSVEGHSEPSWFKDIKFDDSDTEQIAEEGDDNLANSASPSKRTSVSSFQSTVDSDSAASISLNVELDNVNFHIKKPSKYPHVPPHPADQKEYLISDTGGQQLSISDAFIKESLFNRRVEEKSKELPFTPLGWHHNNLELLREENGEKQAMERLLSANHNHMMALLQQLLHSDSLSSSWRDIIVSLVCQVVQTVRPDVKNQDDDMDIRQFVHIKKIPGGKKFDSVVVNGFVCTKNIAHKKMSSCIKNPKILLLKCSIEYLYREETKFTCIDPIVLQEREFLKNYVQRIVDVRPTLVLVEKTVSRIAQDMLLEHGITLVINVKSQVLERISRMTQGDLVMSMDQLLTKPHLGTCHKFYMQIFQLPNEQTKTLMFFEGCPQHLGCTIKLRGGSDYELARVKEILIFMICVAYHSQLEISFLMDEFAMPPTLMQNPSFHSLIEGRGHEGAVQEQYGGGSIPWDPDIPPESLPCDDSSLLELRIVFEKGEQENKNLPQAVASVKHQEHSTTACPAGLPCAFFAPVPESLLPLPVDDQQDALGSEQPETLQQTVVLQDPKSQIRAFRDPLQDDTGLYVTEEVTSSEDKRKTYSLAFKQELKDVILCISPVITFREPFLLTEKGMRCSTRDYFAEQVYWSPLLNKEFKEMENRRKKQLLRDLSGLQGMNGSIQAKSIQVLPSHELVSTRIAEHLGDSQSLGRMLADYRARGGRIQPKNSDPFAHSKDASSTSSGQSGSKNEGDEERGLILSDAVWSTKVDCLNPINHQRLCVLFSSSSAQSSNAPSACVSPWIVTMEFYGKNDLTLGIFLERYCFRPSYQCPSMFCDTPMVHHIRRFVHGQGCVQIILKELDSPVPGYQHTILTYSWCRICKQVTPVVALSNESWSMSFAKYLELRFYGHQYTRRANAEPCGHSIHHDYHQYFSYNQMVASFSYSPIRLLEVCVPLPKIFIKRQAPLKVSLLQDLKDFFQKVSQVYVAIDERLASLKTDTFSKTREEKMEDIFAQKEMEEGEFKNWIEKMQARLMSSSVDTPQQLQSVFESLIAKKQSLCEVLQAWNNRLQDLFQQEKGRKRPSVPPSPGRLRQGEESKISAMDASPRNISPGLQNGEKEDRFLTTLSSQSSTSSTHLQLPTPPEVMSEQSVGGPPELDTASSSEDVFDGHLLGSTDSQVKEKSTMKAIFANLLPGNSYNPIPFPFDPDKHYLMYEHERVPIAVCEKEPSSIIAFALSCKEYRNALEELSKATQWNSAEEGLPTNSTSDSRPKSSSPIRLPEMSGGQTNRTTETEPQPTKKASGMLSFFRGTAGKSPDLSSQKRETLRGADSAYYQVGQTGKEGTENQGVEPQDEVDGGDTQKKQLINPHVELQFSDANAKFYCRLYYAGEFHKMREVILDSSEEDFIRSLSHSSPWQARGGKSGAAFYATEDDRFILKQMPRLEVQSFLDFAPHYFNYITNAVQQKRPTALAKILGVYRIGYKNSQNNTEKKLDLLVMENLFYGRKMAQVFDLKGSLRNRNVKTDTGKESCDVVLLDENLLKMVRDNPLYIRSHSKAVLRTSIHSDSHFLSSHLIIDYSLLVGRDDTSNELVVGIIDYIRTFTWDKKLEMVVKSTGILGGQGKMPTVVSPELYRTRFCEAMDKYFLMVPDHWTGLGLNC
Chain of full-length human PIKFYVE (Q9Y2I7 whole entry S696N/L932S/Q995L/T998S/S1033A/Q1183K): as the sequence (Q9Y2I7 whole entry, the tested form may be a part) above, with S696N, L932S, Q995L, T998S, S1033A, Q1183K counted along it

For the molecule `Cc1cccc(/C=N/Nc2cc(N3CCOCC3)nc(OCCc3ccccn3)n2)c1`, in the assay on FAB1 TDP-43 yeast strain, the “FAB1 TDP-43 (active/inactive)” value was “Inactive”. In assay [1], the “PIKfyve TDP-43 (active/inactive)” value was “Inactive”. As usually defined, the IC50 is the concentration that inhibits the measured activity by half. In assay [1] (Saccharomyces cerevisiae), `Cc1cccc(/C=N/Nc2nc(N3CCOCC3)c3ncccc3n2)c1` yielded a half-inhibitory concentration (IC50) of 8210 nM. In the case of `Fc1cccc(-c2ccnn2-c2nc(N3CCOCC3)c3ncccc3n2)c1`, the IC50 in assay [1] (Saccharomyces cerevisiae) is 5750 nM; in assay [2] (setting [3]), over 10000 nM.

Regarding `Cn1c(-c2ccncc2)nc2c(N3CCOCC3)nc(-c3ccnc(-c4ccccc4)n3)nc21` [Compound 1], the IC50 (on hPIKfyve; in assay [2] (setting [4])) was 10 to 100 nM each time. With `Cn1c(-c2ccncc2)nc2c(N3CCOCC3)nc(-n3ccc(-c4cccc(F)c4)n3)nc21` [Compound 28], the concentration for half-maximal inhibition (IC50) (at hPIKfyve; in assay [2] (setting [4])) was 10 to 100 nM in each case. Regarding `Cn1c(-c2ccncc2)nc2c(N3CCOCC3)ncnc21` [drawing 169], the 50% inhibitory concentration (IC50) in assay [1] came out at 1120 nM; in assay [2] (setting [3]), 7 nM. As to `Cc1cccc(/C=N/Nc2cc(N3CC4CC3CO4)n3nc(-c4ccncc4)cc3n2)c1` (stereo not drawn), the values for the concentration for half-maximal inhibition (IC50) in assay [1] (Saccharomyces cerevisiae) and in assay [2] (setting [3]) were 450 nM and 3 nM, respectively.

Regarding `CN1CCC(c2ccn(-c3nc(N4CCOCC4)c4nc(-c5ccncc5)n(C)c4n3)n2)C1` (stereo not drawn) [Compound 37], the half-maximal inhibitory concentration (IC50) fell in the range of 1000 to 10000 nM on hPIKfyve and 100 to 1000 nM in assay [2] (setting [4]). On to `c1ccc(-c2cccc(-c3nc(N4CCOCC4)n4nc(-c5ccncc5)cc4n3)n2)cc1`, for which the half-inhibitory concentration (IC50) turned out to be 230 nM in assay [1] (Saccharomyces cerevisiae) and 14 nM in assay [2] (setting [3]). `Cc1cccc(/C=N/Nc2nc(N3CCOCC3)c3nc(-c4ccncc4)n(C)c3n2)c1` [Compound 52, (E)-4-(9-methyl-2-(2-(3-methylbenzylidene)hydrazineyl)-8-(pyridin-4-yl)-9H-purin-6-yl)morpholine]: the IC50 (at hPIKfyve; in assay [2] (setting [4])) was under 10 nM throughout. As to `N#Cc1cc(N2CCOCC2)n2nc(-c3ccncc3)cc2n1`, in the assay with FAB1 TDP-43 yeast strain, the “FAB1 TDP-43 (active/inactive)” value is given as “Inactive”. Besides, in assay [1], the “PIKfyve TDP-43 (active/inactive)” value is listed as “Inactive”. Also, the half-inhibitory concentration (IC50) in assay [2] (setting [5]) was over 10000 nM. Consider `Cn1c(-c2ccncc2)nc2c(N3CCOCC3)nc(-n3cccn3)nc21` [Compound 47], for which the 50% inhibitory concentration (IC50) on hPIKfyve fell in the range of 100 to 1000 nM; in assay [2] (setting [4]) it was 10 to 100 nM.

Regarding `Cc1cccc(/C=N/Nc2cc(N3CCOCC3)nc(OCCc3ccc(CN)cc3)n2)c1`, the “FAB1 TDP-43 (active/inactive)” value in the assay with FAB1 TDP-43 yeast strain is reported as “Inactive”. Moreover, the “PIKfyve TDP-43 (active/inactive)” value in assay [1] is given as “Active”. In addition, in assay [2] (setting [5]), the IC50 was 12 nM. For the molecule `c1ccc(N2CCc3c(OCc4cccnc4)nc(N4CCOCC4)nc32)cc1`, it took 2680 nM to reach half-maximal inhibition in assay [1] (Saccharomyces cerevisiae) (IC50). Consider `Cc1cccc(/C=N/Nc2cc(N3CCOCC3)n3nc(-c4ccncc4)cc3n2)c1` [drawing 163], for which the “FAB1 TDP-43 (active/inactive)” value with FAB1 TDP-43 yeast strain is “Inactive”. Further, in assay [1], the “PIKfyve TDP-43 (active/inactive)” value is on record as “Active”. For the molecule `Cn1c(-c2ccncc2)nc2c(N3CCOCC3)nc(-c3noc(-c4ccccc4)n3)nc21` [Compound 32], the IC50 on hPIKfyve was in the range of 100 to 1000 nM; in assay [2] (setting [4]) it was 10 to 100 nM. Molecule `c1ccc(-c2ccnc(-c3cc(N4CCOCC4)nc(OCc4ccncc4)n3)n2)cc1` registered a half-maximal inhibitory concentration (IC50) in assay [1] (Saccharomyces cerevisiae) of 1450 nM. Still for that read-out and setting: for `Oc1cc(C2CCOCC2)nn1-c1cc(N2CCOCC2)n2nc(-c3ccncc3)cc2n1` the value was 9100 nM. Turning to `CN(C)c1cc(N2CCOCC2)n2nc(-c3ccncc3)cc2n1`, the “FAB1 TDP-43 (active/inactive)” value in the assay with FAB1 TDP-43 yeast strain is given as “Inactive”. For the same molecule, the “PIKfyve TDP-43 (active/inactive)” value in assay [1] is “Inactive”. Turning to `Cc1cccc(/C=N/Nc2nc(N3CCOCC3)c3nc(-c4ccncc4)n(C)c3n2)c1` [drawing 168], the half-inhibitory concentration (IC50) in assay [1] stood at 1390 nM; in assay [2] (setting [3]), 1 nM. As to `Cc1cccc(/C=N/Nc2cc(N3CCOCC3)n3nc(-c4ccncc4)cc3n2)c1` [drawing 161], the “FAB1 TDP-43 (active/inactive)” value in the assay on FAB1 TDP-43 yeast strain is reported as “Inactive”. In addition, in assay [1], the “PIKfyve TDP-43 (active/inactive)” value is “Active”. For the molecule `Cc1cccc(/C=N/Nc2nc(N3CCOCC3)c3nc(-c4ccncc4)n(C)c3n2)c1` [drawing 177], the values for the half-inhibitory concentration (IC50) in assay [1] and in assay [2] (setting [3]) were 4720 nM and 5 nM, respectively. Consider `Oc1cc(-c2ccccc2)nn1-c1cc(N2CCOCC2)n2nc(-c3ccncc3)nc2n1`, for which, in assay [1] (Saccharomyces cerevisiae), the IC50 is 693 nM. Take `c1ccc(C2CN(c3nc(N4CCOCC4)n4nc(-c5ccncc5)cc4n3)CCN2)cc1` (stereo not drawn): the IC50 in assay [1] (Saccharomyces cerevisiae) was over 15000 nM; in assay [2] (setting [3]), 2660 nM. Taken in the same sequence, the figures for `c1cc(-c2cc3nc(C4CNC4)nc(N4CCOCC4)n3n2)ccn1` were over 15000 nM and 8020 nM. Consider `Cc1cccc(/C=N/Nc2nc(N3CCOCC3)c3nc(-c4ccncc4)[nH]c3n2)c1` [Compound 119], for which the IC50 (at hPIKfyve; in assay [2] (setting [4])) was under 10 nM throughout. `Cc1cccc(/C=N/Nc2nc(N3CCOCC3)c3nc(-c4ccncc4)n(C)c3n2)c1` [Compound 118]: the IC50 (on hPIKfyve; in assay [2] (setting [4])) was 10 to 100 nM throughout. `c1cc(-c2nc3c(N4CCOCC4)nc(-n4ccc(C5CCOCC5)n4)nc3[nH]2)ccn1` [Compound 6]: the IC50 (at hPIKfyve; in assay [2] (setting [4])) was 10 to 100 nM each time. Take `Cn1c(C2CCNCC2)nc2c(N3CCOCC3)nc(-c3ccc4c(c3)OCCO4)nc21` [Compound 113, 4-(2-(2,3-dihydrobenzo[b][1,4]dioxin-6-yl)-9-methyl-8-(piperidin-4-yl)-9H-purin-6-yl)morpholine]: in assay [2] (setting [4]), the IC50 is under 10 nM.

Values taken from US20240150358A1, “PURINES AND METHODS OF THEIR USE” (Kineta, Inc., priority 2020, published 2024).
